Measurements as given in ChEMBL document CHEMBL6178022, “Discovery and Optimization of Potent PROTAC Degraders of Phosphoinositide 3-Kinase with Significant in Vivo Anticancer Efficacy” (J Med Chem, 2025).

Key:
T47D [1] = experiment: Antiproliferative activity against human T47D cells assessed as inhibition of cell viability incubated for 3 days by MTT/CTG assay; conditions: 72 h
[2] = Terminal half life in ICR mouse at 3 mg/kg, iv measured for 24 hrs by LC-MS/MS analysis; type: ADME, organism-based; conditions: in vivo, read-out: beta t1/2 (converted)
[3] = Metabolic stability in rat plasma at 2 uM measured up to 60 mins by LC-MS/MS analysis; type: ADME, cell-free; conditions: 1 h
Mus musculus = experiment: In vivo PROTAC activity at CRBN/PI3K-alpha in human HGC-27 cells xenografted in male BALB/c nude mouse model assessed as PI3K-alpha degradation administered intraperitoneally once daily for 14 days consecutively; type: functional, organism-based; conditions: dose 30-60 mg/kg, route ip, time 14.0 day
[4] = Metabolic stability in monkey liver microsomes assessed as half life at 2 uM measured up to 60 mins by LC-MS/MS analysis; type: ADME, Macaca mulatta, Microsome; conditions: rhesus monkey
MDA-MB-453 = experiment: Antiproliferative activity against human MDA-MB-453 cells assessed as inhibition of cell viability incubated for 3 days by MTT/CTG assay; conditions: MDA-MB-453, 72 h
[5] = Toxicity in male BALB/c nude mouse model xenografted with human HGC-27 cells assessed as body weight change at 30 to 60 mg/kg, ip qd treated for 14 days consecutively; type: organism-based; conditions: in vivo, 336 h, dose 30-60 mg/kg, time 14 day
[6] = Toxicity in male BALB/c nude mouse model xenografted with human HGC-27 cells assessed as drug tolerance at 30 to 60 mg/kg, ip qd treated for 14 days consecutively; type: organism-based; conditions: in vivo, 336 h, dose 30-60 mg/kg, time 14 day
[7] = Cmax in Sprague-Dawley rat at 15 mg/kg, ip measured for 24 hrs by LC-MS/MS analysis; type: ADME, organism-based; conditions: in vivo
[8] = Drug metabolism in mouse liver microsomes at 2 uM measured up to 60 mins in absence of NADPH by LC-MS/MS analysis; type: ADME, Microsome; conditions: 1 h
[9] = Toxicity in C57BL/6J mouse administered intraperitoneally for 7 days; conditions: in vivo, route ip, time 7 day
[10] = target: Phosphatidylinositol 4,5-bisphosphate 3-kinase catalytic subunit gamma isoform (Homo sapiens, UniProt P48736); experiment: Inhibition of PI3K-gamma (unknown origin) by kinase selectivity profiling analysis
Phosphatidylinositol 4,5-bisphosphate 3-kinase catalytic subunit gamma isoform, sequence (P48736 whole entry, canonical isoform): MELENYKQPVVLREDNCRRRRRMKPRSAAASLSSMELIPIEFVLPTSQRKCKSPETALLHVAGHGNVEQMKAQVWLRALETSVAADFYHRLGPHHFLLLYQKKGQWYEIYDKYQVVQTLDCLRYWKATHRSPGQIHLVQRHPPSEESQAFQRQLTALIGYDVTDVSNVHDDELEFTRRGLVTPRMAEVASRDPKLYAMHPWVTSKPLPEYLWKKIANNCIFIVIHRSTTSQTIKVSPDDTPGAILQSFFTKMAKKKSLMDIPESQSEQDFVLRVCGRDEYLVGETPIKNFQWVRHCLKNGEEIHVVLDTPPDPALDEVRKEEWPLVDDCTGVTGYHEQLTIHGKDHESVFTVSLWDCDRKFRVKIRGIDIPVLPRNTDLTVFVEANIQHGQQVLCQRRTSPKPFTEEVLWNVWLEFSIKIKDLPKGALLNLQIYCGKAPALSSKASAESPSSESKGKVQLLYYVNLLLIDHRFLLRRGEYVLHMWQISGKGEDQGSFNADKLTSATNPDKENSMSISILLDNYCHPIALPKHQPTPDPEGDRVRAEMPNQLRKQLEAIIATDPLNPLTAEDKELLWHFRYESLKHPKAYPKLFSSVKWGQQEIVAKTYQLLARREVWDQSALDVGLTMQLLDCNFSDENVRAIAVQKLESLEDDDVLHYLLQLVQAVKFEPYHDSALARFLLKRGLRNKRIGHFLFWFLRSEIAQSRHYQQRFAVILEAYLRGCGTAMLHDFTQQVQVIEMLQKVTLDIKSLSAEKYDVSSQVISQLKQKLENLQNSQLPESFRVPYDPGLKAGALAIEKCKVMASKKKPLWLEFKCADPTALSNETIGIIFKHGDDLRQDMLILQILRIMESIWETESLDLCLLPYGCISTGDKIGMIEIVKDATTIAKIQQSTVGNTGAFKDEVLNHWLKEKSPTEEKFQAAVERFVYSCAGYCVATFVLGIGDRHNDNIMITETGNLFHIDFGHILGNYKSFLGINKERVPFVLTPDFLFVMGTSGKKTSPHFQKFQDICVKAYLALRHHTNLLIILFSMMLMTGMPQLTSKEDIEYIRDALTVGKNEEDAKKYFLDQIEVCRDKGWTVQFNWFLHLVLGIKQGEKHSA

AGS = experiment: Antiproliferative activity against human AGS cells assessed as inhibition of cell viability incubated for 3 days by MTT/CTG assay; conditions: 72 h
[11] = Toxicity in C57BL/6J mouse assessed as body weight change at 100 mg/kg, ip treated daily for 7 days; type: organism-based; conditions: in vivo, 168 h, time 7 day
HGC-27 [12] = experiment: Antiproliferative activity against human HGC-27 cells assessed as inhibition of cell viability incubated for 3 days by MTT/CTG assay; conditions: HGC-27, 72 h
[13] = Metabolic stability in mouse liver microsomes assessed as half life at 2 uM measured up to 60 mins by LC-MS/MS analysis; type: ADME, Microsome
[14] = MRT (0 to t) in ICR mouse at 30 mg/kg, ip measured for 24 hrs by LC-MS/MS analysis; type: ADME, organism-based; conditions: in vivo
HGC-27 [15] = experiment: Antitumor activity against human HGC-27 cells xenografted in male BALB/c nude mouse model at 60 mg/kg, ip qd treated for 14 days consecutively relative to control; type: functional; conditions: HGC-27, 336 h, time 14 day, read-out: TGI
[16] = Drug metabolism in monkey liver microsomes at 2 uM measured up to 60 mins in absence of NADPH by LC-MS/MS analysis; type: ADME, Macaca mulatta, Microsome; conditions: rhesus monkey, 1 h
[17] = AUC (0 to t) in ICR mouse at 30 mg/kg, ip measured for 24 hrs by LC-MS/MS analysis; type: ADME, organism-based; conditions: in vivo
[18] = Metabolic stability in dog liver microsomes assessed as half life at 2 uM measured up to 60 mins by LC-MS/MS analysis; type: ADME, Canis lupus familiaris, Microsome
[19] = Terminal half life in ICR mouse at 30 mg/kg, ip measured for 24 hrs by LC-MS/MS analysis; type: ADME, organism-based; conditions: in vivo, read-out: beta t1/2
[20] = Terminal half life in Sprague-Dawley rat at 1.5 mg/kg, iv measured for 24 hrs by LC-MS/MS analysis; type: ADME, organism-based; conditions: in vivo, read-out: beta t1/2 (converted)
[21] = AUC (0 to t) in Sprague-Dawley rat at 15 mg/kg, ip measured for 24 hrs by LC-MS/MS analysis; type: ADME, organism-based; conditions: in vivo
[22] = Toxicity in male BALB/c nude mouse model xenografted with human DOHH-2 cells assessed as drug tolerance at 30 mg/kg, ip qd treated for 21 days consecutively; type: organism-based; conditions: in vivo, 504 h, time 21 day
[23] = Oral bioavailability in ICR mouse at 30 mg/kg measured for 24 hrs by LC-MS/MS analysis; type: ADME, organism-based; conditions: in vivo
[24] = Cytotoxicity against human AC16 [Human hybrid] cells; type: toxicity, cell-based
Pfeiffer = experiment: Antiproliferative activity against human Pfeiffer cells assessed as inhibition of cell viability incubated for 3 days by MTT/CTG assay; conditions: 72 h
[25] = Metabolic stability in monkey plasma at 2 uM measured up to 60 mins by LC-MS/MS analysis; type: ADME, cell-free, Macaca mulatta; conditions: rhesus monkey, 1 h
[26] = Oral bioavailability in Sprague-Dawley rat at 15 mg/kg measured for 24 hrs by LC-MS/MS analysis; type: ADME, organism-based; conditions: in vivo
PC-3 = experiment: Antiproliferative activity against human PC-3 cells assessed as inhibition of cell viability incubated for 3 days by MTT/CTG assay; conditions: PC-3, 72 h
T47D [27] = experiment: Induction of cell cycle arrest in human T47D cells assessed as accumulation at G2/M phase incubated for 24 hrs by PI staining based flow cytometry; type: functional; conditions: dose 0.1-10 µM
[28] = AUC (0 to t) in Sprague-Dawley rat at 1.5 mg/kg, iv measured for 24 hrs by LC-MS/MS analysis; type: ADME, organism-based; conditions: in vivo
[29] = MRT (0 to t) in Sprague-Dawley rat at 1.5 mg/kg, iv measured for 24 hrs by LC-MS/MS analysis; type: ADME, organism-based; conditions: in vivo
[30] = Metabolic stability in dog plasma at 2 uM measured up to 60 mins by LC-MS/MS analysis; type: ADME, cell-free, Canis lupus familiaris; conditions: 1 h
[31] = Metabolic stability in rat liver microsomes assessed as half life at 2 uM measured up to 60 mins by LC-MS/MS analysis; type: ADME, Microsome
[32] = Metabolic stability in human liver microsomes assessed as half life at 2 uM measured up to 60 mins by LC-MS/MS analysis; type: ADME, Microsome
HGC-27 [33] = experiment: Antitumor activity against human HGC-27 cells xenografted in male BALB/c nude mouse model at 30 mg/kg, ip qd treated for 14 days consecutively relative to control; type: functional; conditions: HGC-27, 336 h, time 14 day, read-out: TGI
[34] = Toxicity in male BALB/c nude mouse model xenografted with human DOHH-2 cells assessed as body weight loss at 30 mg/kg, ip qd treated for 21 days consecutively; type: organism-based; conditions: in vivo, 504 h, time 21 day
[35] = Metabolic stability in human plasma at 2 uM measured up to 60 mins by LC-MS/MS analysis; type: ADME, cell-free; conditions: 1 h
[36] = Drug metabolism in dog liver microsomes at 2 uM measured up to 60 mins in absence of NADPH by LC-MS/MS analysis; type: ADME, Canis lupus familiaris, Microsome; conditions: 1 h
hERG (KCNH2) = hERG (KCNH2) (Homo sapiens, UniProt Q12809); experiment: Inhibition of hERG stably expressed in HEK293 cells at 10 uM by whole-cell patch-clamp technique relative to control; type: toxicity, cell-based; conditions: HEK293 cells stably expressing hERG
hERG (KCNH2), sequence (Q12809 whole entry): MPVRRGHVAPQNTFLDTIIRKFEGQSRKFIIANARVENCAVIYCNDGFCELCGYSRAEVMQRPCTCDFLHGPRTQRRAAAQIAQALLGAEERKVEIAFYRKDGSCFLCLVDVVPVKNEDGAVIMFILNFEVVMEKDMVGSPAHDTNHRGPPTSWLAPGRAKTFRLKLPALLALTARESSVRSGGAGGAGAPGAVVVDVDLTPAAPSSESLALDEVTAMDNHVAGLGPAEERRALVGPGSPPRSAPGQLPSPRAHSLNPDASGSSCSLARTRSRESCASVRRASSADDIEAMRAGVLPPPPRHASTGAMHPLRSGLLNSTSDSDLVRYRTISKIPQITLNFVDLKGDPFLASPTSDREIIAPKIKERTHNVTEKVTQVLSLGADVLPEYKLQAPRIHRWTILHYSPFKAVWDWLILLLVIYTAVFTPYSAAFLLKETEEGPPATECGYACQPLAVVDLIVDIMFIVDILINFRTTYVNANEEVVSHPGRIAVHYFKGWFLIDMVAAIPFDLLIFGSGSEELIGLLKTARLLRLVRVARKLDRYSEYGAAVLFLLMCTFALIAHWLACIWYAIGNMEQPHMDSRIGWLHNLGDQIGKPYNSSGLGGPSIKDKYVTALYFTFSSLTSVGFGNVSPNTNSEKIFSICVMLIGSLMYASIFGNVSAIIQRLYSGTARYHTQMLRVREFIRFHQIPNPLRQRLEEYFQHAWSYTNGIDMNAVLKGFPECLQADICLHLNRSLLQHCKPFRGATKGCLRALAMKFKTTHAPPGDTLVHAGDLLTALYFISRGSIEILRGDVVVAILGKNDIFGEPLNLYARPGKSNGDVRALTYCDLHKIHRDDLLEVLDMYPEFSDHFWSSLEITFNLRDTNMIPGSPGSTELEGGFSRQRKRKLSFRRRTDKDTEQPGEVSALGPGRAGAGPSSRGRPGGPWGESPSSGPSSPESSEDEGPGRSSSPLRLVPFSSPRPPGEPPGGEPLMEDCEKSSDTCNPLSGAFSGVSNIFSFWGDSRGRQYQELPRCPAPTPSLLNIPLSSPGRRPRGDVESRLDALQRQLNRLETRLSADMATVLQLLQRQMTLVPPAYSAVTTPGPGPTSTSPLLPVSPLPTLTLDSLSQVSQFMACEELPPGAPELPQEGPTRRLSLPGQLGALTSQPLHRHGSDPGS

[37] = MRT (0 to t) in ICR mouse at 3 mg/kg, iv measured for 24 hrs by LC-MS/MS analysis; type: ADME, organism-based; conditions: in vivo
[38] = MRT (0 to t) in Sprague-Dawley rat at 15 mg/kg, ip measured for 24 hrs by LC-MS/MS analysis; type: ADME, organism-based; conditions: in vivo
[39] = Cmax in ICR mouse at 30 mg/kg, ip measured for 24 hrs by LC-MS/MS analysis; type: ADME, organism-based; conditions: in vivo
[40] = Terminal half life in Sprague-Dawley rat at 15 mg/kg, ip measured for 24 hrs by LC-MS/MS analysis; type: ADME, organism-based; conditions: in vivo, read-out: beta t1/2 (converted)
DOHH-2 = experiment: Antitumor activity against human DOHH-2 cells xenografted in male BALB/c nude mouse model at 30 mg/kg, ip qd treated for 21 days consecutively relative to control; type: functional; conditions: DOHH-2, 504 h, time 21 day, read-out: TGI
T47D [41] = experiment: Effect on PI3K-alpha mRNA level in human T47D cells at 1 uM incubated for 24 hrs by RT-PCR analysis; type: functional, cell-based
[42] = target: Voltage-gated inwardly rectifying potassium channel KCNH2 (Homo sapiens, UniProt Q12809); experiment: Inhibition of hERG stably expressed in HEK293 cells by whole-cell patch-clamp technique; type: toxicity, cell-based
Voltage-gated inwardly rectifying potassium channel KCNH2, sequence (Q12809 whole entry): as above

[43] = Drug metabolism in rat liver microsomes at 2 uM measured up to 60 mins in absence of NADPH by LC-MS/MS analysis; type: ADME, Microsome; conditions: 1 h
[44] = Metabolic stability in mouse plasma at 2 uM measured up to 60 mins by LC-MS/MS analysis; type: ADME, cell-free; conditions: 1 h
LNCaP = experiment: Antiproliferative activity against human LNCaP cells assessed as inhibition of cell viability incubated for 3 days by MTT/CTG assay; conditions: 72 h
[45] = AUC (0 to t) in ICR mouse at 3 mg/kg, iv measured for 24 hrs by LC-MS/MS analysis; type: ADME, organism-based; conditions: in vivo
[46] = Drug metabolism in human liver microsomes at 2 uM measured up to 60 mins in absence of NADPH by LC-MS/MS analysis; type: ADME, Microsome; conditions: 1 h

COc1ncc(-c2cc(OCCCCCCCCCCCCNc3cccc4c3C(=O)N(C3CCC(=O)NC3=O)C4=O)c3ncnc(C)c3c2)cc1NS(=O)(=O)c1ccc(F)cc1F (centres undefined)
IC50 (T47D [1]): 0.35 µM | half-life [2]: 7.88 h | Stability [3]: Stable | Activity (Mus musculus): Dose-dependent-effect | half-life at 2 µM [4]: 0.542 h | IC50 (MDA-MB-453): 1.64 µM | Activity [5]: Non-toxic | Activity [6]: Non-toxic | Cmax [7]: 555 ng/mL | Drug metabolism [8]: metabolite_notdetected | MTD at 168 h [9]: > 100 mg/kg | IC50 [10]: > 10 µM | IC50 (AGS): 0.37 µM | Activity [11]: Non-toxic | IC50 (HGC-27 [12]): 1.45 µM | half-life at 2 µM [13]: 0.377 h | MRT last at 24 h [14]: 10.7 h | inhibition in vivo at 60 mg/kg (HGC-27 [15]): 56.8% | Drug metabolism [16]: metabolite_notdetected | AUC(0-t) at 24 h [17]: 26300 ng·h/mL | half-life at 2 µM [18]: 1.12 h | half-life [19]: > 24 h | half-life [20]: 2.11 h | AUC(0-t) at 24 h [21]: 5490 ng·h/mL | Activity [22]: Non-toxic | bioavailability [23]: 20% | IC50 [24]: > 50 µM | IC50 (Pfeiffer): 0.69 µM | Stability [25]: Stable | bioavailability [26]: 46.4% | IC50 (PC-3): 1.48 µM | Activity (T47D [27]): Dose-dependent-effect | AUC(0-t) at 24 h [28]: 1120 ng·h/mL | MRT last at 24 h [29]: 1.98 h | Stability [30]: Stable | half-life at 2 µM [31]: 0.762 h | half-life at 2 µM [32]: 0.578 h | inhibition in vivo at 30 mg/kg (HGC-27 [33]): 38.3% | Activity [34]: Non-toxic | Stability [35]: Stable | Drug metabolism [36]: metabolite_notdetected | inhibition at 10 µM (hERG (KCNH2)): 10.2% | MRT last at 24 h [37]: 6.69 h | MRT last at 24 h [38]: 6.05 h | Cmax [39]: 1420 ng/mL | half-life [40]: 4.28 h | inhibition in vivo at 30 mg/kg (DOHH-2): 61.8% | Activity (T47D [41]): No effect | IC50 [42]: > 10 µM | Drug metabolism [43]: metabolite_notdetected | Stability [44]: Stable | IC50 (LNCaP): 3.38 µM | AUC(0-t) at 24 h [45]: 12700 ng·h/mL | Drug metabolism [46]: metabolite_notdetected
